According to publication PMC9250970, “Role of Helical Structure in MBP Immunodominant Peptides for Efficient IgM Antibody Recognition in Multiple Sclerosis” (Frontiers in Chemistry, 2022):
“Also recorded” adds a separate entry of the source.

Assays:
[1] = NMR conformational analysis in DPC micelles; format: physicochemical; conditions: 1H NMR (chemical shift and NOE), 100 mM DPC-d38, 50 mM potassium phosphate pH 6.5, 10% D2O, 25°C; remaining regions random coil
Procedure: The samples for NMR spectroscopy were prepared by dissolving the appropriate amount of peptide in 50 mM potassium phosphate buffer (pH 6.5), 10% D2O, and 100 mM DPC-d38. NMR spectra were recorded on a Varian INOVA 600 MHz spectrometer equipped with a z-gradient 5 mm triple-resonance probe head. Spectra were recorded at a temperature of 25°C. The spectra were calibrated relative to TSP (0.00 ppm) as internal standard. One-dimensional (1D) NMR spectra were recorded in the Fourier mode with quadrature detection. The water signal was suppressed by gradient echo ([Hwang and Shaka, 1995]). 2D DQF-COSY ([Piantini et al., 1982]; [Marion and Wüthrich, 1983]), TOCSY ([Braunschweiler and Ernst, 1983]), and NOESY ([Jenner et al., 1979]) spectra were recorded in the phase-sensitive mode. Data block sizes were 2048 addresses in T2 and 512 equidistant T1 values. Before Fourier transformation, the time domain data matrices were multiplied by shifted sin2 functions in both dimensions. A mixing time of 70 ms was used for the TOCSY experiments. NOESY experiments were run with mixing time of 100 ms.

[2] = tested on: anti-MBP protein IgM antibodies of MS serum; assay: Inhibition (competitive) ELISA, MBP protein coated; format: binding, human; conditions: tested MS serum; peptides 1 and 2 as inhibitors
Description: (§1) Fifteen Multiple Sclerosis (MS) patients were recruited in the Multiple Sclerosis Clinical Care and Research Centre, Department of Neurosciences, Reproductive Sciences and Odontostomatology, Federico II University (Naples, Italy). The relapsing-remitting MS (RR-MS) patients were previously diagnosed after a lumbar puncture, cerebrospinal fluid analysis, and MRI examination and fulfilled the established international diagnostic criteria ([Polman et al., 2011]; [Thompson et al., 2018]). The present study was conducted in accordance with the Declaration of Helsinki. The performed experimental protocols were approved by the Ethics Committee 2006 (protocol n. 120/06) and 2017 (protocol n. 160/17). […]
(§2) Nunc-Immuno MicroWell 96 well polystyrene ELISA plates (NUNC Maxisorb, product code M9410, Merck, Milan, Italy) were coated with a solution 10 μg/ml of the peptide antigens in pure carbonate buffer 0.05 M (pH 9.6) adding 100 μL/well, and microplates were incubated at 4°C overnight. […] Antibody affinity was measured following the competitive ELISA previously reported ([Real-Fernández et al., 2015]). Semi-saturating sera dilution was previously calculated in preliminary titration curves (absorbance 0.7). […] After approximately 30 min, the reaction was stopped with 1 M NaOH solution (50 μL/well), and the absorbance was read in a multichannel ELISA reader (Tecan Sunrise, Männedorf, Switzerland) at 405 nm. […]

[3] = Circular dichroism (secondary structure); format: physicochemical; conditions: for % helix / effect of temperature on secondary structure / self-aggregation (in words) / secondary structure (in words) / effect of temperature on secondary structure (in words): CD; for % helix: H2O:TFE (50:50, v:v); for effect of temperature on secondary structure / self-aggregation (in words): PBS pH 7.4, 10 to 60°C in increments of 5°C; for effect of temperature on secondary structure (in words): Supplementary Figures S14, S15, various temperatures (10 to 60°C)
Procedure: CD spectra were recorded on JASCO J-815 with increasing temperature from 10 to 60°C in increments of 5°C between λ = 270 and 185 nm. The CD measurements were carried out in H2O, a mixture of H2O:TFE (50:50, v:v) and PBS (phosphate buffered saline, pH 7.4, containing: sodium chloride, potassium chloride, sodium phosphate dibasic, potassium phosphate monobasic). The spectra were registered with the following parameters: 0.2 nm resolution, 1.0 nm bandwidth, 20 mdeg sensitivity, 0.25 s response, 100 nm min^−1 scanning speed, 5 scans, and 0.02 cm cuvette path length. The CD spectra of solvents were recorded and subtracted from the raw data. The spectra were corrected by a baseline that was measured with the identical solvent in the same cell. The CD intensity is given as mean residue molar ellipticity (θ) [deg × cm^2 × dmol^−1].

[4] = tested on: IgM antibodies in MS patient sera; assay: Solid-phase ELISA (SP-ELISA), IgM; format: binding, human; conditions: peptide coated 10 μg/ml; for patients in whose serum IgM antibodies were detected: 1 out of 15 patients, sera 1:100; for IgM antibody detection (in words): fifteen MS patient sera 1:100, carbonate buffer pH 9.6, anti-human IgM 1:200, 405 nm
Description: Fifteen Multiple Sclerosis (MS) patients were recruited in the Multiple Sclerosis Clinical Care and Research Centre, Department of Neurosciences, Reproductive Sciences and Odontostomatology, Federico II University (Naples, Italy). The relapsing-remitting MS (RR-MS) patients were previously diagnosed after a lumbar puncture, cerebrospinal fluid analysis, and MRI examination and fulfilled the established international diagnostic criteria ([Polman et al., 2011]; [Thompson et al., 2018]). The present study was conducted in accordance with the Declaration of Helsinki. The performed experimental protocols were approved by the Ethics Committee 2006 (protocol n. 120/06) and 2017 (protocol n. 160/17). Blood samplings were performed during the routine follow-up of patients, while the healthy control samplings were carried out during routine health checks or blood donations. Sera samples were obtained for diagnostic purposes from patients and healthy controls who had given their informed consent. Blood samples were centrifuged at 4,000 rpm for 10 min and sera supernatant was stored at -20°C until use.
Immunoassays were performed to evaluate IgM or IgG antibodies in sera by SP-ELISA. At this purpose, the synthetic antigens were coated on 96-well plates (NUNC Maxisorb, product code M9410, Merck, Milan, Italy). Coating conditions were set-up independently for each peptide and results are reported in the Supplementary Material. Polystyrene 96-well ELISA plates were coated with 100 μL/well of a 10 μg/ml solution of synthetic peptide antigens 1-6 diluted in pure carbonate buffer 0.05 M (pH 9.6), independently. After overnight incubation at 4°C, plates were washed (3×) using washing buffer. Nonspecific binding sites were blocked with 100 μL/well of fetal bovine serum buffer (10% FBS in washing buffer) at room temperature for 1 h. FBS buffer was removed, and plates were incubated overnight at 4°C with sera (diluted 1:100 in FBS buffer, 100 μL/well). After three washes, plates were treated with 100 μL/well of anti-human IgG or IgM alkaline phosphatase-conjugated specific antibodies diluted in FBS buffer 1:3,000 (IgG) and 1:200 (IgM) for all tested antigens. […] Colorimetric reaction was carried out adding 100 μl of substrate reaction solution (1 mg/ml pNPP, MgCl2 0.01 M in carbonate buffer, pH 9.6) to each well and plates were read at 405 nm using a TECAN plate reader. After 30 min, the reaction was stopped with 1 M NaOH solution (50 μL/well) and the absorbance was read in a multichannel ELISA reader (Tecan Sunrise, Männedorf, Switzerland) at 405 nm. Antibody titer values were calculated as (mean Abs of serum triplicate)—(mean Abs of blank triplicate) representing graphically the calculated mean values. […]

[5] = tested on: IgG antibodies in MS patient sera; assay: Solid-phase ELISA (SP-ELISA), IgG; format: binding; conditions: fifteen MS patient sera 1:100; peptide coated 10 μg/ml, carbonate buffer pH 9.6; anti-human IgG 1:3,000; 405 nm
Description: as §1
Immunoassays were performed to evaluate IgM or IgG antibodies in sera by SP-ELISA. […] Colorimetric reaction was carried out adding 100 μl of substrate reaction solution (1 mg/ml pNPP, MgCl2 0.01 M in carbonate buffer, pH 9.6) to each well and plates were read at 405 nm using a TECAN plate reader. After 30 min, the reaction was stopped with 1 M NaOH solution (50 μL/well) and the absorbance was read in a multichannel ELISA reader (Tecan Sunrise, Männedorf, Switzerland) at 405 nm. Antibody titer values were calculated as (mean Abs of serum triplicate)—(mean Abs of blank triplicate) representing graphically the calculated mean values. […]

[6] = tested on: anti-MBP (76–116) IgM antibodies of MS serum; assay: Inhibition (competitive) ELISA, MBP (76–116) (2) coated; format: binding, human
Description: as §1, §2

Row | % helix ([3]; 25°C) [%] | secondary structure (in words) ([3]; PBS pH 7.4, 25°C) | secondary structure (in words) ([3]; water, 25°C) | minimum of CD spectrum attributed to beta structures (aggregation) ([3]; PBS pH 7.4, increasing temperature, temperature-induced self-aggregation) | Sequence | helical structure, residues [1] | inhibition of IgM antibody binding to MBP protein (in words) [2] | effect of temperature on secondary structure / self-aggregation (in words) [3] | effect of temperature on secondary structure (in words) [3] | patients in whose serum IgM antibodies were detected [4] [%] | IgM antibody detection (in words) [4] | IgG antibody reactivity (in words) [5] | affinity of IgMs in competitive ELISA, fold greater than longer analogue MBP (76–116) (2) ([6]; competitive ELISA, MS serum, compared to the longer analogue) [fold] | antibody affinity/recognition in competitive experiment (in words) ([6]; solution conditions of the competitive experiments, peptide 1 vs. peptide 2)
1 | 3 | random coil structures | randomly structured in water solution | about 205 nm | SQHGRTQDENPVVHFFKNIVTPRTPPPSQGKGRGLSLSRFS [MBP (76–116) (2), elongated synthetic peptide, fragment 76–116 of myelin basic protein] | 87–96 | able to inhibit IgM antibody binding to MBP protein in the tested MS serum with comparable IC50 | shift of the minimum to lower wavelength and a strong decrease of the signal intensity; also recorded: temperature-induced peptide self-aggregation, likely in beta structures | no spectral differences of secondary peptide structure at various temperatures | 7 | IgM antibodies were detected in one representative patient serum; also recorded: able to detect a high, stable, and reproducible IgM antibody titer |  |  | 
2 |  |  |  |  | TPPPSQGK [MBP (99–106) (6)] |  |  |  |  |  |  | nonspecific IgG antibody reactivity |  | 
3 | 14 |  | randomly structured in water solution |  | TQDENPVVHFFKNIVTPRTPPPSQGK [MBP (81–106) (1), synthetic peptide, fragment 81–106 of myelin basic protein, covering the immunodominant region] | 87–96 | able to inhibit IgM antibody binding to MBP protein in the tested MS serum with comparable IC50 | no differences of secondary structure at various temperatures | no spectral differences of secondary peptide structure at various temperatures | 7 | slightly recognized IgGs and IgMs | To a lesser extent, also against peptide MBP (81–106) (1); also recorded: slightly recognized IgGs and IgMs | 4 | recognized more efficiently by antibodies in the solution conditions of the competitive experiments
